Experimental data from patent publication US20260191793A1, “HBV SPECIFIC EXOSOMES AND USES THEREOF” (priority 2022, published 2026).

What was measured:
HBV DNA = assay: Sanger sequencing of HBV DNA fragments from treated HepDE19 cells; type: cell-based, Hepatitis B virus (HBV); settings: compared with gRNAc
Procedure: Following treatment with gRNA5/Cas9+gRNA9/Cas9, or gRNAc/Cas9 RNPs, genomic DNA was isolated from HepDE19 cells using the PureLink Genomic DNA Mini Kit (Cat #K182001, Invitrogen). DNA fragments containing the gRNA target sequences were amplified by qPCR using primers flanking the cleavage sites. The PCR products were confirmed using 1% agarose gel electrophoresis and purified using a QIAquick gel extraction kit (Cat #28704, Qiagen). Sequencing of the extracted DNA fragments was performed by GENEWIZ (Chelmsford, MA) using Sanger's sequencing method. The PCR primers used for the detection of gRNA5 and gRNA9 flanking regions are described above. The sequencing readouts were aligned with the gRNAc, which was compared to the HBV sequence in the database (ayw strain, Genbank accession number: NC_003977.2). The Chromas's software (Technelysium DNA sequencing software) was used to read the nucleotide peaks, and the alignment of two or more sequences was performed using the BLAST tool from NCBI-BLAST to compare the nucleotide sequences.
Following a successful CRISPR/Cas9 cleavage, DNA damage repair pathways are initiated, and nucleotide mutagenesis occurs in the targeted genome, introducing substitution mutations. […]

HBV in HepG2-NTCP cells = assay: Infection of HepG2-NTCP cells with supernatants of gRNA/Cas9-transfected HepDE19 cells (infectious HBV particles); type: cell-based, Hepatitis B virus (HBV); settings: HepG2-NTCP infected with supernatants of transfected HepDE19 cells, vs supernatants of gRNAc-transfected cells, qPCR
Procedure: To characterize the effects of synthetic gRNA5/Cas9 and gRNA9/Cas9 on HBV replication, the ability of HBV particles derived from HepDE19 cells that have been transfected with gRNA5, gRNA9, or gRNAc RNPs for 3 days to infect HepG2-NTCP cells was assessed. HepG2-NTCP cells were infected for 6 days with supernatants harvested from HepDE19 cells. Genomic DNA was isolated from HepG2-NTCP cells and used for qPCR quantification of HBV DNA.
HBV infectious particles were harvested from the supernatants of gRNA/Cas9-treated HepDE19 cells and used for the infection of HepG2-NTCP cells following a previously published method. Briefly, the supernatants of gRNA RNP-treated HepDE19 cells were harvested and concentrated using a PEG concentration kit (Cat #ab102538, Abcam, Waltham, MA). For HBV infection, 2.5×10^5 HepG2-NTCP cells were seeded in a 12-well plate and mixed with 10 μl concentrated HBV supernatants in 1 ml hepatocyte maintenance medium (HMM) (with 8% PEG8000 and 5% DMSO) at 37° C. for 16 h. The culture media were changed daily with fresh HMM. After 8 days, the cells were harvested and HBV DNA and cccDNA levels were determined as described below.
Total and protein-free HBV DNAs were extracted from whole cell lysate using the Hirt DNA method according to a previously published protocol. For HBV cccDNA analysis, the protein-free DNA was treated with 10 units of T5 exonuclease (NEB) at 37° C. for 30 min, followed by 95° C. for 5 min, and diluted 4-fold with nuclease-free water. Next, the cccDNA was cleaned with a DNA clean and concentrator kit (ZYMO Research, Irvine, CA) and used for PCR. HBV total DNA and cccDNA were analyzed by real-time PCR using a TaqMan PCR assay. The primers and probe used to amplify HBV total DNA were: HBV total DNA forward: 5′-[…]-3′ (SEQ ID NO: 58), reverse 5′-[…]-3′ (SEQ ID NO: 59), and internal probe: 5′-FAM-[…]-TAMRA-3′ (SEQ ID NO: 60). The primers and probe used to amplify HBV cccDNA (Genotype D, subtype ayw) were: forward: 5′-[…]-3′ (SEQ ID NO: 61), reverse 5′-[…]-3′ (SEQ ID NO: 62), and internal probe 5′-FAM-[…]-TAMRA-3′ (SEQ ID NO: 63). The PCR reactions were performed in 20 μl volumes and contained 2 μl DNA. The PCR conditions were: 95° C. for 10 min, followed by 45 cycles of 95° C. for 15 s and 64° C. for 30 s. The DNA levels were determined by the […] method and values were normalized to the control group.
Sodium taurocholate cotransporting polypeptide (NTCP) is a functional receptor for human HBV. The human hepatoma cell line HepG2 is not susceptible to HBV infection due to lack of NTCP; however, HepG2 cells transfected with NTCP expression plasmids (HepG2-NTCP) are susceptible to natural HBV infection. To further characterize the inhibitory effects of the synthetic gRNA/Cas9 RNPs on HBV replication, HepG2-NTCP cells were incubated with supernatants collected from gRNA/Cas9 RNP-transfected HepDE19 cell culture (after 4 days). Genomic DNA was isolated from HepG2-NTCP cells on day 8 after HBV infection and used for the assessment of HBV replication.

Sequence | mutations at gRNA-targeted sites of HBV DNA (Sanger sequencing) (HBV DNA) | HBV DNA in HepG2-NTCP cells (HBV in HepG2-NTCP cells) | HBV cccDNA in HepG2-NTCP cells (HBV in HepG2-NTCP cells) | HBV DNA in HepG2-NTCP cells (HBV in HepG2-NTCP cells; listed as gRNA5/Cas9) | HBV cccDNA in HepG2-NTCP cells (HBV in HepG2-NTCP cells; listed as gRNA5/Cas9) | HBV DNA in HepG2-NTCP cells (HBV in HepG2-NTCP cells; listed as gRNA9/Cas9) | HBV cccDNA in HepG2-NTCP cells (HBV in HepG2-NTCP cells; listed as gRNA9/Cas9)
GTTATCGCTGGATGTGTCTGNGG (guide GUUAUCGCUGGAUGUGUCUGNGG; complexed with Cas9 protein, chemistry not fully specified) [gRNA5, tested as synthetic gRNA/Cas9 RNP] | specific DNA indel mutations | significantly lower | remarkably lower | significantly fewer copies | significantly fewer copies |  | 
GGTCTCCATGCGACGTGCAGNGG [gRNA9] | specific DNA indel mutations | significantly lower | remarkably lower |  |  | significantly fewer copies | significantly fewer copies
